Test results published in ChEMBL document CHEMBL1201862, “PubChem BioAssay data set” (2004).
Activity calls are given as the source filed them.

Experiments:
[1] = target: Disintegrin and metalloproteinase domain-containing protein 17 (Homo sapiens, UniProt P78536); assay: exosite inhibitors of ADAM17, dose response, biochemical (AID 743260)
[2] = inhibition of ADAM10 peptide cleavage – biochemical, FRET peptide substrate, recombinant human ADAM10, selectivity assay for ADAM17 exosite inhibitor project, dose response (AID 743259);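 also: ADAM10 enzyme cleaving a FRET peptide substrate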
[3] = viability loss in HEK293 cells – cell-based, plate reader, cherry-picked samples, cytotoxicity control, dose response (AID 743446); assay type: functional
[4] = A549 cell cytotoxicity, dose response, cytotoxicity control, plate reader, cherry-pick, antagonist series (AID 743412); assay type: functional, cell-based
[5] = blockers of bursicon-stimulated LGR2 cAMP reporter – cell-based, HEK293, CRE-luciferase reporter, cherry pick, set 2, dose response (AID 743343); assay type: functional;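 also: transfected cells were stimulated with diluted bursicon conditioned medium after compound addition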
[6] = blockade of melanocortin 4 receptor signaling – cell-based, plate reader, cherry pick, counter-screen for LGR2 antagonist project, dose response (AID 743444); assay type: functional;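 also: transfected HEK 293 cells stimulated with alpha-MSH peptide; potency of inhibitors of the alpha-MSH evoked signal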
[7] = toxicity toward HepG2 liver cells – cell-based, plate reader, cherry-pick, antagonist series, cytotoxicity control, dose response (AID 743416); assay type: functional
[8] = SNU-C1 cell viability reduction, dose response, CellTiter-Glo luminescence (AID 1117323); assay type: functional, cell-based
[9] = cytotoxicity toward HT-29 cells – cell-based, CellTiter-Glo luminescence, IC50, dose response (AID 1117330); assay type: functional
[10] = cytotoxicity toward Colo320 cells – cell-based, CellTiter-Glo luminescence, IC50, dose response (AID 1117334); assay type: functional; conditions: COLO 320
[11] = Reduced DLD-1 viability, concentration-response, CellTiter-Glo luminescence (AID 1117352); assay type: functional
[12] = cytotoxicity toward HCT116 cells – cell-based, CellTiter-Glo luminescence, IC50, dose response (AID 1117332); assay type: functional; conditions: HCT-116
[13] = RKO cell viability reduction, dose response, CellTiter-Glo luminescence (AID 1117322); assay type: functional
[14] = CellTiter-Glo luminescence survival assay, SW480 colon tumor line, concentration-response curve, half-maximal inhibitory concentration (AID 1117338); assay type: functional
[15] = target: Major prion protein (Homo sapiens, UniProt P04156); assay type: functional, cell-based
[16] = cells
[17] = target: Mitogen-activated protein kinase 10 (Homo sapiens, UniProt P53779); assay: Dose response biochemical screening assay for inhibitors of c-Jun N-Terminal Kinase 3 (JNK3). [Related pubchem assays: 746 ]
[18] = target: Peroxisome proliferator-activated receptor gamma/Nuclear receptor coactivator 2 (Homo sapiens, UniProt P37231); assay: (§1) TR-FRET dose response biochemical High Throughput Screening assay for agonists of the steroid receptor coactivator 2 (SRC-2) recruitment by the peroxisome proliferator-activated receptor gamma (PPAR gamma): non-selective agonists. [Related pubchem assays: 1297, 1032 ]; assay type: functional
[19] = target: Peroxisome proliferator-activated receptor gamma/Nuclear receptor coactivator 1 (Homo sapiens, UniProt P37231); assay: as §1, with “1 (SRC-1)” for “2 (SRC-2)”, “assays (depositor defined):AID1300, AID1808, AID504735, AID631]” for “assays: 1297, 1032 ]”; assay type: protein assay
[20] = target: Peroxisome proliferator-activated receptor gamma/Nuclear receptor coactivator 3 (Homo sapiens, UniProt P37231); assay: as §1, with “3 (SRC-3)” for “2 (SRC-2)”, “1301 (Confirmation screen.), 1048 (Primary screen.)]” for “1297, 1032 ]”; assay type: functional
[21] = target: Endoplasmic reticulum aminopeptidase 1 (Homo sapiens, UniProt Q9NZ08); assay: inhibition of human ERAP1 enzyme activity – biochemical, cherry-pick, set 2, plate reader, dose response (AID 743314)
[22] = target: Paired box protein Pax-8 (Homo sapiens, UniProt Q06710); assay: PAX8 transcriptional activity inhibition in RMG-I – RMG-I cells, luciferase, cherry-pick, dose response (AID 687027); assay type: functional, cell-based;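 also: luciferase reporter driven by Pax8 target thyroperoxidase promoter measured by SteadyGlo luminescence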
[23] = general cell-killing toxicity readout – plate reader, dry powder samples, cytotoxicity control for PAX8 inhibitor project, dose response (AID 743021); assay type: functional, cell-based
[24] = OVCAR-3 cell viability loss – plate reader, dry powder samples, PAX8 inhibitor project, dose response (AID 743044); assay type: functional, cell-based
[25] = OVCAR8 cell viability loss – plate reader, dry powder samples, PAX8 project, dose response (AID 743197); assay type: functional, cell-based; conditions: OVCAR-8
[26] = viability loss in human Jurkat cells – cell-based, luminescence, cytotoxicity control for P. falciparum gametocyte viability project, dose response (AID 1117277); assay type: functional;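 also: potency reflects loss of cellular ATP meaning fewer viable cells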
[27] = viability inhibitors of stage V gametocytes – luminescence, dose response (AID 1117278); assay type: functional, cell-based;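 also: gametocytes exposed to compound for 24 hours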
[28] = target: T1, Corticotropin-releasing factor receptor 2/Corticotropin-releasing factor-binding protein (Homo sapiens, UniProt P24387+Q13324); assay: Dose Response confirmation of uHTS hits for small molecule antagonists of the CRF-binding protein and CRF-R2 receptor complex.; assay type: functional; conditions: read-out: IC50_Mean
T1 sequence (Q13324 whole entry): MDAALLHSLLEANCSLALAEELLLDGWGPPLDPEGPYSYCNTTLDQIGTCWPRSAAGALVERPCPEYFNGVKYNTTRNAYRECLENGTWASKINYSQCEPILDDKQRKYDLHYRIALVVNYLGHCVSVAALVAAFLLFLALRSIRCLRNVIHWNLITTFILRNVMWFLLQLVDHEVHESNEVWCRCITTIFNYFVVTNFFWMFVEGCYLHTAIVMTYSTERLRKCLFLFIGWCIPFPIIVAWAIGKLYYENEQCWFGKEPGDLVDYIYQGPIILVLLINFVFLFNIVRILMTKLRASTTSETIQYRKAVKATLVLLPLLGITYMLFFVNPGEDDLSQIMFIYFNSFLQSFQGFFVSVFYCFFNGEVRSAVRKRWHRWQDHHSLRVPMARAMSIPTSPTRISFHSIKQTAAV
T1 sequence (P24387 whole entry): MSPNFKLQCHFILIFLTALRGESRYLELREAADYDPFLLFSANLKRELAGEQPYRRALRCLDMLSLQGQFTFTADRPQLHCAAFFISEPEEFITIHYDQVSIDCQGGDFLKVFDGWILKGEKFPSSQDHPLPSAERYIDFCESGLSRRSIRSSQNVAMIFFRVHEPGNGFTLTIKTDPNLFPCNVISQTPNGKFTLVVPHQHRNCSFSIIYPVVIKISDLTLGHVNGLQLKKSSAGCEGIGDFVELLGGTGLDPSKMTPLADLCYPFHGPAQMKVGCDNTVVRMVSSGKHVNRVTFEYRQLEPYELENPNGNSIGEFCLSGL

[29] = target: T1, Corticotropin-releasing factor receptor 2/Corticotropin-releasing factor-binding protein; assay: activators of CRF receptor 2 with binding protein – uHTS hits, confirmation (AID 602473); assay type: functional; conditions: read-out: EC50_Mean
[30] = target: Genome polyprotein (dengue virus type 2, UniProt P29990); assay: flavivirus cap methylation enzyme inhibition – biochemical, confirmation dose response, primary screen (AID 588689); assay type: functional
[31] = target: T2, Heat shock factor protein 1 (Mus musculus, UniProt P38532); assay: enhancement of HSF1-driven luciferase signal – cell-based, NIH3T3, luminescence, dose retest, confirmation (AID 435004); assay type: functional;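 also: stress induced by proteasome inhibitor MG132 added 30 min after compound; luciferase reporter driven by HSF1 response element in NIH3T3 cells; actives raise luminescence as potentiators of the MG132 stress response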
T2 sequence (P38532 whole entry): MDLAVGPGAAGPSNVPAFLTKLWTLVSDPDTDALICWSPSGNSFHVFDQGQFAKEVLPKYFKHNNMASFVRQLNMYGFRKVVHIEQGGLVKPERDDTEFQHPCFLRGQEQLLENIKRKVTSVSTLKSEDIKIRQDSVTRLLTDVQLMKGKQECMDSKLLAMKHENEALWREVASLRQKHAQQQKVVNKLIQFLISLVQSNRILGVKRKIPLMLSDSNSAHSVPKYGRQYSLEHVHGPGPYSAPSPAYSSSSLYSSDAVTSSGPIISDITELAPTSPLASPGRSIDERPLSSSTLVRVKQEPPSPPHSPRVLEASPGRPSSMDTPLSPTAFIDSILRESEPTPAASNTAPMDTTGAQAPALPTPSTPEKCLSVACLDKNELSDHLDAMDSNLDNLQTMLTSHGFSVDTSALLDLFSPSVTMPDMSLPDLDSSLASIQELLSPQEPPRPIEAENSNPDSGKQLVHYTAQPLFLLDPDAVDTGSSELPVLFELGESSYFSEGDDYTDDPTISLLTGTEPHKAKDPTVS

[32] = target: Histone-lysine N-methyltransferase NSD2 (Homo sapiens, UniProt O96028); assay type: biochemical
[33] = target: fMet-Leu-Phe receptor (Homo sapiens, UniProt P21462); assay: formyl peptide receptor binders – dose response (AID 519); assay type: functional
[34] = target: T3, Oxysterols receptor LXR-beta (Homo sapiens, UniProt P55055); assay: LXR agonists, Gal4 luciferase reporter, dose response, counter-screen for ssDAF-12 agonist project, cell-based, luminescence, HEK293, S. stercoralis campaign (AID 720737); assay type: functional; conditions: read-out: IC50 (the source's name)
T3 sequence (P55055 whole entry): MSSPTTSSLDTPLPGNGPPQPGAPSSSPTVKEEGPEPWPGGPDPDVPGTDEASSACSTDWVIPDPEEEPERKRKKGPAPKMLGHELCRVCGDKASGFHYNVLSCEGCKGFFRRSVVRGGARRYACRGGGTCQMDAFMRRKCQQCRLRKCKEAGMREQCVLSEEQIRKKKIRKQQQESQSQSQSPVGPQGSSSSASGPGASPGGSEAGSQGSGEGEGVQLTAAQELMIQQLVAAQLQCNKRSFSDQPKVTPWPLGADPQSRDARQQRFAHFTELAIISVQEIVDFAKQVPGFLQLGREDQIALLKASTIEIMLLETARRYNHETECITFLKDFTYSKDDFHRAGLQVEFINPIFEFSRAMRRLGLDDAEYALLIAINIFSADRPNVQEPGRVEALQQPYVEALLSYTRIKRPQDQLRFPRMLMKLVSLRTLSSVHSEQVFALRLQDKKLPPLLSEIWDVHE

[35] = Luminescence-based cell-based high throughput dose response assay to identify activators of the DAF-12 from the parasite S. stercoralis (ssDAF-12).; assay type: functional

Question: Which IC50 [1] does the source give for `CC(=O)n1cc([C@@H]2C=C(C(=O)Nc3ccccc3)O[C@H](OCc3ccc(CO)cc3)C2)c2ccccc21` here?
Answer: > 69.5 µM (inactive)

Question: And the IC50 [2]?
Answer: > 69.5 µM (inactive)

Question: Which results are given for `COc1cc(OC)nc(Nc2nc(C(N)Cc3ccc(C(F)(F)F)cc3)cs2)n1` (stereo not drawn)?
Answer: AC50 [3]: 15.7 µM (active); AC50 [4]: 7.58 µM (active); AC50 [5]: 18.9 µM (active); AC50 [6]: 24.8 µM (active); AC50 [7]: 7.18 µM (active)

Question: With `Cc1onc(-c2ccccc2)c1-c1ccc(S(N)(=O)=O)cc1` [VALDECOXIB] as the compound, how does the IC50 [8] read?
Answer: > 20 µM (inactive)

Question: And the IC50 [9]?
Answer: > 20 µM (inactive)

Question: And the IC50 [10]?
Answer: > 20 µM (inactive)

Question: What about the IC50 [11] of the same compound?
Answer: > 20 µM (inactive)

Question: And the IC50 [12]?
Answer: > 20 µM (inactive)

Question: What about the IC50 [13] of the same compound?
Answer: > 20 µM (inactive)

Question: And the IC50 [14]?
Answer: > 20 µM (inactive)

Question: Which results are given for `Cc1ccccc1-c1nnc(S)o1`?
Answer: IC50 [15]: 5.75 µM (active); IC50 [16]: > 138 µM (inactive); IC50 [17]: 55.5 µM (not active); EC50 [18]: 9.69 µM (active); EC50 [19]: 71.9 µM (inactive); EC50 [20]: > 79.4 µM (not active)

Question: With `C/C(=N\NC(=O)CC#N)c1cc2ccc(O)cc2oc1=O` as the compound, how does the AC50 [21] read?
Answer: 6.38 µM (active)

Question: Which results are given for `CN(C)CC(=O)N1CCCCN2[C@H](CO)[C@H](c3ccc(/C=C/c4ccccc4)cc3)[C@H]2C1`?
Answer: AC50 [22]: 9.31 µM (active); AC50 [23]: 42.9 µM (active); AC50 [24]: 47.6 µM (active); AC50 [25]: 69.1 µM (active)

Question: What does the source list for `CCCc1n[nH]c(SCc2ccc(Cl)cc2Cl)n1`?
Answer: IC50 [26]: > 83.3 µM (inactive); IC50 [27]: > 109 µM (inactive); IC50 [28]: > 47.1 µM (inactive); EC50 [29]: > 53 µM (inactive)

Question: For `O=C(O)CN1C(=O)/C(=C\c2cc(Br)ccc2OCc2ccc(F)cc2)SC1=S`, which IC50 [30] is on record?
Answer: 31.4 µM (active)

Question: And the EC50 [31]?
Answer: > 260 µM (inactive)

Question: And the AC50 [32]?
Answer: 18.5 µM (active)

Question: Which Ki [33] does the source give for `COCCCN1C(=O)C(O)=C(C(=O)c2ccco2)C1c1cccc(Br)c1` (stereo not drawn) here?
Answer: 31.2 µM (inactive)

Question: Which AC50 [21] does the source give for `COCC(=O)N1[C@@H]2c3ccc(/C=C/c4ccccc4)c(=O)n3C[C@H]1[C@H](CO)[C@H]2C(=O)N1CCOCC1` here?
Answer: 4.85 µM (active)

Question: Which results are given for `O=C(NCCc1c[nH]c2ccccc12)c1cnccn1`?
Answer: IC50 [26]: > 83.3 µM (inactive); IC50 [27]: > 109 µM (inactive); EC50 [34]: > 67.5 µM (inactive); IC50 [35]: > 67.5 µM (inactive)
